# Target: T1, PAR4 (Homo sapiens, UniProt Q96RI0)
# T1 construct: expressed in transfected cells; host or cells: HEK293 PAR4 Clone 1.2A (BMS Arctic ID 383940)
# T1 sequence (Q96RI0 18-385): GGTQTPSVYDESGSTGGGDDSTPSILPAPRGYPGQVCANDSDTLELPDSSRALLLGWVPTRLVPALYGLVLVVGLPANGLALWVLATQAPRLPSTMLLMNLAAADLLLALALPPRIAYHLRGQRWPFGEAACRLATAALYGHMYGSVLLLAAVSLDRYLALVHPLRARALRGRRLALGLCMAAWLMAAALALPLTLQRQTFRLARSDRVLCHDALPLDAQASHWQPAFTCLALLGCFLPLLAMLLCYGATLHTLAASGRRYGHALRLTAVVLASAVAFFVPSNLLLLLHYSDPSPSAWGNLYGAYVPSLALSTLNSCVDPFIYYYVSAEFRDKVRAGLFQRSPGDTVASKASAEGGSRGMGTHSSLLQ
# Test: PAR4 FLIPR assay (antagonism of agonist peptide-induced calcium mobilization)
# Format: cell-based
# Procedure, shortened: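 Antagonism was taken as block of calcium mobilization evoked by the agonist peptide H-Ala-Phe(4-F)-Pro-Gly-Trp-Leu-Val-Lys-Asn-[…]-NH2, added after 30 min room-temperature compound preincubation in dye-loaded PAR4-transfected HEK293 cells (endogenous PAR1). Fluorescence was read on FDSS, with compound addition alone used as the agonist counter-screen; values come from 11-point concentration-response curves.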
row,IC50 [nM],Compound
1,0.8,"COc1cnc2c(-c3nc4cc(F)c5c(c4s3)C[C@H](COC(=O)Nc3cccnc3)O5)cc(C)cc2n1 [Example 157, (R)-(5-fluoro-2-(2-methoxy-7-methylquinoxalin-5-yl)-7,8-dihydrobenzofuro[5,4-d]thiazo 1-7-yl)methyl pyridin-3-ylcarbamate]"
2,0.6,"COc1cnc2c(-c3nc4cc(F)c5c(c4s3)C[C@H](COC(=O)Nc3ccc(C)nc3)O5)cc(C)cc2n1 [Example 159, (R)-(5-fluoro-2-(2-methoxy-7-methylquinoxalin-5-yl)-7,8-dihydrobenzofuro[5,4-d]thiazol-7-yl)methyl (6-methylpyridin-3-yl)carbamate]"
3,0.6,"COc1cnc2c(-c3nc4cc(F)c5c(c4s3)C[C@H](COC(=O)Nc3ccnc(C)c3)O5)cc(C)cc2n1 [Example 160, (R)-(5-fluoro-2-(2-methoxy-7-methylquinoxalin-5-yl)-7,8-dihydrobenzofuro[5,4-d]thiazol-7-yl)methyl (2-methylpyridin-4-yl)carbamate]"
4,1.1,"COc1cnc2c(-c3nc4cc(F)c5c(c4s3)C[C@H](COC(=O)Nc3cncc(F)c3)O5)cc(C)cc2n1 [Example 161, (R)-(5-fluoro-2-(2-methoxy-7-methylquinoxalin-5-yl)-7,8-dihydrobenzofuro[5,4-d]thiazo 1-7-yl)methyl (5-fluoropyridin-3-yl)carbamate]"
5,0.7,"COc1cnc2c(-c3nc4cc(F)c5c(c4s3)C[C@H](COC(=O)Nc3cccc(C#N)c3)O5)cc(C)cc2n1 [Example 162, (R)-(5-fluoro-2-(2-methoxy-7-methylquinoxalin-5-yl)-7,8-dihydrobenzofuro[5,4-d]thiazol-7-yl)methyl (3-cyanophenyl)carbamate]"
6,160,"COc1cc(NC(=O)OC[C@H]2Cc3c(c(F)cc4nc(-c5cc(C)cc6nc(OC)cnc56)sc34)O2)ccn1 [Example 163, (R)-(5-fluoro-2-(2-methoxy-7-methylquinoxalin-5-yl)-7,8-dihydrobenzofuro[5,4-d]thiazo 1-7-yl)methyl (2-methoxypyridin-4-yl)carbamate]"
7,1.6,"COc1ccc(NC(=O)OC[C@H]2Cc3c(c(F)cc4nc(-c5cc(C)cc6nc(OC)cnc56)sc34)O2)cn1 [Example 164, (R)-(5-fluoro-2-(2-methoxy-7-methylquinoxalin-5-yl)-7,8-dihydrobenzofuro[5,4-d]thiazo 1-7-yl)methyl (6-methoxypyridin-3-yl)carbamate]"
8,1,"COc1cnc2c(-c3nc4cc(F)c5c(c4s3)C[C@H](COC(=O)Nc3ccc(OCCO)nc3)O5)cc(C)cc2n1 [Example 165, (R)-(5-fluoro-2-(2-methoxy-7-methylquinoxalin-5-yl)-7,8-dihydrobenzofuro[5,4-d]thiazo 1-7-yl)methyl (6-(2-hydroxyethoxy)pyridin-3-yl)carbamate]"
9,1.1,"COc1cnc2c(-c3nc4cc(F)c5c(c4s3)C[C@H](COC(=O)Nc3ccc(OCC(F)(F)CO)nc3)O5)cc(C)cc2n1 [Example 166, (R)-(5-fluoro-2-(2-methoxy-7-methylquinoxalin-5-yl)-7,8-dihydrobenzofuro[5,4-d]thiazo 1-7-yl)methyl (6-(2,2-difluoro-3-hydroxypropoxy)pyridin-3-yl)carbamate]"
10,3.1,"COc1cnc2c(-c3nc4cc(F)c5c(c4s3)CC(C)(CO)O5)cc(C)cc2n1 (stereo not drawn) [Example 167, (5-fluoro-2-(2-methoxy-7-methylquinoxalin-5-yl)-7-methyl-7,8-dihydrobenzofuro[5,4-d]thiazol-7-yl)methanol]"
11,5,"COc1cncc(NC(=O)OC[C@H]2Cc3c(c(F)cc4nc(-c5cc(C)cc6nc(OC)cnc56)sc34)O2)c1 [Example 168, (R)-(5-fluoro-2-(2-methoxy-7-methylquinoxalin-5-yl)-7,8-dihydrobenzofuro[5,4-d]thiazo 1-7-yl)methyl (5-methoxypyridin-3-yl)carbamate]"
12,6.6,"COc1cnc2c(-c3nc4cc(F)c5c(c4s3)C[C@H](COC(=O)Nc3ccc(C(=O)N4CCOCC4)cc3)O5)cc(C)cc2n1 [Example 169, (R)-(5-fluoro-2-(2-methoxy-7-methylquinoxalin-5-yl)-7,8-dihydrobenzofuro[5,4-d]thiazol-7-yl)methyl (4-(morpholine-4-carbonyl)phenyl)carbamate]"
13,5.7,"COc1cnc2c(-c3nc4cc(F)c5c(c4s3)C[C@H](COC(=O)Nc3ccc(F)nc3)O5)cc(C)cc2n1 [Example 170, (R)-(5-fluoro-2-(2-methoxy-7-methylquinoxalin-5-yl)-7,8-dihydrobenzofuro[5,4-d]thiazo 1-7-yl)methyl (6-fluoropyridin-3-yl)carbamate]"
14,45,"COc1cnc2c(-c3nc4ccc5c(c4s3)CC(C)(CO)O5)cc(C)cc2n1 (stereo not drawn) [Example 171, (2-(2-methoxy-7-methylquinoxalin-5-yl)-7-methyl-7,8-dihydrobenzofuro[5,4-d]thiazol-7-yl)methanol]"
15,1.1,"COc1cnc2c(-c3nc4cc(F)c5c(c4s3)C[C@@](C)(CO)O5)cc(C)cc2n1 [Example 172, (S)-(5-fluoro-2-(2-methoxy-7-methylquinoxalin-5-yl)-7-methyl-7,8-dihydrobenzofuro[5,4-d]thiazol-7-yl)methanol]"
16,1.3,"COc1cnc2c(-c3nc4cc(F)c5c(c4s3)C[C@H](COC(=O)Nc3cnc(OCCO)nc3)O5)cc(C)cc2n1 [Example 173, (R)-(5-fluoro-2-(2-methoxy-7-methylquinoxalin-5-yl)-7,8-dihydrobenzofuro[5,4-d]thiazo 1-7-yl)methyl (2-(2-hydroxyethoxy)pyrimidin-5-yl)carbamate]"
17,30,"COc1cnc2c(-c3nc4cc(F)c5c(c4s3)C[C@@](C)(COC(=O)Nc3cnc(C)nc3)O5)cc(C)cc2n1 [Example 174, (S)-(5-fluoro-2-(2-methoxy-7-methylquinoxalin-5-yl)-7-methyl-7,8-dihydrobenzofuro[5,4-d]thiazol-7-yl)methyl (2-methylpyrimidin-5-yl)carbamate]"
18,19,"COc1cnc2c(-c3nc4cc(F)c5c(c4s3)C[C@@](C)(COC(=O)Nc3cccnc3)O5)cc(C)cc2n1 [Example 175, (S)-(5-fluoro-2-(2-methoxy-7-methylquinoxalin-5-yl)-7-methyl-7,8-dihydrobenzofuro[5,4-d]thiazol-7-yl)methyl pyridin-3-ylcarbamate]"
19,6.1,"COc1cnc2c(-c3nc4cc(F)c5c(c4s3)C[C@@](C)(COC(=O)Nc3cccc(C#N)c3)O5)cc(C)cc2n1 [Example 176, (S)-(5-fluoro-2-(2-methoxy-7-methylquinoxalin-5-yl)-7-methyl-7,8-dihydrobenzofuro[5,4-d]thiazol-7-yl)methyl (3-cyanophenyl)carbamate]"
20,2.8,"COc1cnc2c(-c3nc4cc(F)c5c(c4s3)C[C@H](COC(=O)Nc3cnc(OC)nc3)O5)cc(C)cc2n1 [Example 177, (R)-(5-fluoro-2-(2-methoxy-7-methylquinoxalin-5-yl)-7,8-dihydrobenzofuro[5,4-d]thiazol-7-yl)methyl (2-methoxypyrimidin-5-yl)carbamate]"
21,2.3,"COc1cnc2c(-c3nc4cc(F)c5c(c4s3)C[C@H](COC(=O)Nc3ccc4c(c3)C(=O)NC4)O5)cc(C)cc2n1 [Example 178, (R)-(5-fluoro-2-(2-methoxy-7-methylquinoxalin-5-yl)-7,8-dihydrobenzofuro[5,4-d]thiazo 1-7-yl)methyl (3-oxoisoindolin-5-yl)carbamate]"
22,2.4,"COc1cnc2c(-c3nc4cc(F)c5c(c4s3)C[C@H](COC(=O)Nc3cc(F)cc(C#N)c3)O5)cc(C)cc2n1 [Example 179, (R)-(5-fluoro-2-(2-methoxy-7-methylquinoxalin-5-yl)-7,8-dihydrobenzofuro[5,4-d]thiazo 1-7-yl)methyl (3-cyano-5-fluorophenyl)carbamate]"
23,1.6,"COc1cnc2c(-c3nc4cc(F)c5c(c4s3)C[C@H](COC(=O)Nc3cccc(C(N)=O)c3)O5)cc(C)cc2n1 [Example 180, (R)-(5-fluoro-2-(2-methoxy-7-methylquinoxalin-5-yl)-7,8-dihydrobenzofuro[5,4-d]thiazol-7-yl)methyl (3-carbamoylphenyl)carbamate]"
24,52,"COc1cnc2c(-c3nc4cc(F)c5c(c4s3)C[C@](C)(CO)O5)cc(C)cc2n1 [Example 181, (R)-(5-fluoro-2-(2-methoxy-7-methylquinoxalin-5-yl)-7-methyl-7,8-dihydrobenzofuro[5,4-d]thiazol-7-yl)methanol]"
25,2.6,"COc1cnc2c(-c3nc4cc(F)c5c(c4s3)C[C@](C)(COC(=O)Nc3cnc(C)nc3)O5)cc(C)cc2n1 [Example 182, (R)-(5-fluoro-2-(2-methoxy-7-methylquinoxalin-5-yl)-7-methyl-7,8-dihydrobenzofuro[5,4-d]thiazol-7-yl)methyl (2-methylpyrimidin-5-yl)carbamate]"
26,2.3,"COc1cnc2c(-c3nc4cc(F)c5c(c4s3)C[C@](C)(COC(=O)Nc3cccnc3)O5)cc(C)cc2n1 [Example 183, (R)-(5-fluoro-2-(2-methoxy-7-methylquinoxalin-5-yl)-7-methyl-7,8-dihydrobenzofuro[5,4-d]thiazol-7-yl)methyl pyridin-3-ylcarbamate]"
27,1.8,"COc1cnc2c(-c3nc4cc(F)c5c(c4s3)C[C@](C)(COC(=O)Nc3cccc(C#N)c3)O5)cc(C)cc2n1 [Example 184, (R)-(5-fluoro-2-(2-methoxy-7-methylquinoxalin-5-yl)-7-methyl-7,8-dihydrobenzofuro[5,4-d]thiazol-7-yl)methyl (3-cyanophenyl)carbamate]"
